# Source: patent US12144789B2, “Pharmaceutical composition exhibiting anti-tumor activity, method for treating patient suffering from cancer and method for inhibiting tumor growth” (Gongwin Biopharm Co., Ltd., priority 2016, dated 2024)
# Where two headings read alike, the source gives them in different places.
# How the values were obtained:
# [1] = tested on: Tca-8113 cells; experiment: MTT cell viability assay; format: cell-based; settings: for suppression ratio (cancer cell suppression %/normal cell suppression %): Tca-8113 vs HGF
# Description: (§1) To examine the effects of PTS on cell viability, Tca-8113 and HGF cells were treated with different doses of PTS for 1 h. The 3-(4,5-dimethylthiazol-2-yl)-2,5-diphenyltetrazolium bromide (MTT) assay is conducted by treating Tca-8113 and human gingival fibroblast (HGF) cells with 2.5 μmol/l, 5 μmol/l, 10 μmol/l, 20 μmol/l, 40 μmol/l and 80 μmol/l PTS for 1 h, respectively. The effects of PTS on cell viability were assessed using MTT 72 h after treatment. […] PTS induces more significant cell death in […] cells than that in normal gingival fibroblasts. Taking the 10 μmol/l […] treatment for example, about 50% Tca-8113 cells were suppressed while only 10% […] cells were suppressed, so the suppression ratio (cancer cell suppression %/normal cell suppression %) is 5. Similarly, the suppression ratios of 20 μmol/l, 40 μmol/l and 80 μmol/l are 2.6, 1.8, 1.05.
# [2] = tested on: Tca-8113 cells; experiment: cells; format: cell-based; settings: 1 h
# Description: Next, cancer cell death is measured by using flow cytometric analysis. Tca-8113 cells were treated with 40 μmol/l and 80 μmol/l PTS or DMSO (control) for 1 h. Cells were stained with Annexin V− FITC and propidium iodide (PI), followed by flow cytometric analysis.
# [3] = tested on: Tca-8113 cells; experiment: Transmission electron microscopy of ultrastructural changes; format: cell-based; settings: 40 μmol/l PTS, 1 h
# Description: To investigate the mechanisms of PTS-induced cell death, the present invention uses transmission electron microscopy analysis to observe the changes in ultrastructures of Tca-8113 cells. Tca-8113 cells were treated with 40 μmol/l PTS or dimethyl sulfoxide for 1 h. The ultrastructural changes were observed using a transmission electron microscope. […] More secondary lysosomes (pointed by arrow) with high electron density were observed after PTS treatment. Lysosomal instability was proposed to control the fate of cells either through activation of apoptosis or necrosis.
# [4] = tested on: Tca-8113 cells; experiment: Lactate dehydrogenase (LDH) release assay (necrosis); format: cell-based; settings: 80 μmol/l PTS, 1 h
# Description: Furthermore, in studying PTS-induced necrosis, LDH release assay is used. LDH is a cytosolic enzyme that can be released into culture medium upon damage of the plasma membrane. Necrosis, which results in an early loss of plasma membrane integrity, can be determined using the LDH release assay. In LDH release assay, Tca-8113 cells were treated with 80 μmol/l PTS or DMSO for 1 h; PTS-induced necrosis was determined using the lactate dehydrogenase (LDH) release assay.
# [5] = tested on: Human gingival fibroblast (HGF) cells; format: cell-based; settings: 10 min
# Description: (§2) In assessing the accumulation of intracellular PTS between Tca-8113 cells and normal cells after different doses and incubation periods of PTS treatment, Tca-8113 and Human gingival fibroblast (HGF) cells were treated 2.5 μmol/l˜80 μmol/l PTS for different periods. Please see FIG. 2A and FIG. 2B, which show the plots of intracellular PTS concentration after 2.5 μmol/l˜80 μmol/l PTS treatment for different periods of time in Tca-8113 and HGF cell, respectively. […] However, the accumulated intracellular PTS concentration in […] cells is much higher than that in HGF cells. […] The intracellular PTS concentration variation between the Tca-8113 cells and HGF cells can range from 5× (20 μmol/l), 8× (40 μmol/l) to 12 (80 μmol/l).
# [6] = cited from earlier work
# [7] = tested on: Tca-8113 cells; format: cell-based; settings: human; for intracellular PTS concentration variation between Tca-8113 cells and HGF cells: 10 min
# Description: Firstly, Tca-8113 were treated with PTS or dimethyl sulfoxide (DMSO) (control vehicle) and then extract the intracellular matrix subjected to high-performance liquid chromatography.
# as §2
# [8] = tested on: Tca-8113 cells; experiment: Transwell migration assay; format: cell-based; settings: 40 μmol/l PTS, 1 h
# Description: The effect of PTS on the invasive ability of cancer cells is also investigated. Tca-8113 cells were treated with 40 μmol/l PTS or DMSO for 1 h; the effects of PTS on cell migration were determined using a transwell migration assay.
# [9] = tested on: cytochrome c; experiment: Western blot analysis of cytosolic cytochrome c; format: cell-based; settings: Tca-8113 cells, 40 μmol/l and 80 μmol/l PTS, 1 h
# Description: (§3) Increased lysosomal permeability is reported to induce mitochondrial damage and the release of pro-apoptotic factors. The applicant therefore investigated the cytosolic cytochrome c released from the mitochondria after PTS treatment. […] Inhibition of ATP biosynthesis is observed when Tca-8113 cells were treated with 40 μmol/l PTS or DMSO for […]. The effects of PTS on ATP biosynthesis were assessed by measuring chemiluminescence. […] 40 μmol/l PTS treatment for 1 h attenuated ATP biosynthesis to 65.8%.
# [10] = tested on: Tca-8113 cells; experiment: Colony formation assay; format: cell-based; settings: 80 μmol/l PTS
# Description: Colony formation assay shown in FIG. 6 further confirms the cytotoxic effects of PTS on Tca-8113 cells.
# [11] = tested on: Lysosomes of Tca-8113 cells; experiment: Lysosomal integrity assay (LMP), lysosomal β-galactosidase free activity; format: biochemical; settings: isolated lysosomes of Tca-8113 cells
# Description: Next, a lysosomal integrity assay (LMP) is performed to assess the effects of PTS on lysosomal membrane integrity. Lysosomes of Tca-8113 cells were isolated using the Percoll gradient centrifugation method. The effects of PTS on lysosomal integrity were assessed by measuring the activity of lysosomal β-galactosidase using UMBG (4-methylumbelliferyl-β-D-galactoside). The 4-methylumbelliferone released was determined by measuring its fluorescence (excitation: 365 nm, emission: 444 nm) on a fluorescence spectrophotometer. The activity of the enzyme measured in the presence and absence of 0.36% Triton X-100 was designated the […], respectively.
# [12] = tested on: Human gingival fibroblast (HGF) cells; format: cell-based
# Description: as §1
# [13] = tested on: cathepsin B; experiment: Western blot analysis of cleaved cathepsin B; format: cell-based; settings: Tca-8113 cells, 40 μmol/l PTS, 1 h
# Description: In the western blot analysis, Tca-8113 cells are analyzed after 40 μmol/l PTS treatment for 1 h.
# [14] = tested on: Tca-8113 cells; experiment: Morphologic changes by phase-contrast microscope; format: cell-based; settings: 40 μmol/l PTS for 1 h
# Description: Next, in observing the morphological feature of the treated cells, Tca-8113 and HGF cells were treated with 40 μmol/l PTS or DMSO (control vehicle) for 1 h; the morphologic changes were observed using a phase-contrast microscope.
# [15] = tested on: mitochondrial ATP biosynthesis in Tca-8113 cells; experiment: ATP biosynthesis by chemiluminescence; format: cell-based; settings: 40 μmol/l PTS
# Description: as §3
# [16] = 10 μmol/l for 1 h, MTT 72 h after treatment
# [17] = read-out: Viable cells (Annexin V−/PI−)
smiles,measurement,setting,value
"Cc1ccc(S(N)(=O)=O)cc1 [PTS, para-toluenesulfonamide]",Tca-8113 cells suppressed,[1]; [16],about 50%
same,suppression ratio (cancer cell suppression %/normal cell suppression %),[1]; 10 μmol/l,5
same,suppression ratio (cancer cell suppression %/normal cell suppression %),[1]; 20 μmol/l,2.6
same,suppression ratio (cancer cell suppression %/normal cell suppression %),[1]; 40 μmol/l,1.8
same,number of viable cells,"[1]; 80 μmol/l PTS for 1 h, MTT 72 h after treatment",almost completely suppressed the number of viable cells
same,suppression ratio (cancer cell suppression %/normal cell suppression %),[1]; 80 μmol/l,1.05
same,viability of Tca-8113 cells,"[1]; 2.5-80 μmol/l PTS for 1 h, MTT 72 h after treatment",significantly reduced the viability of Tca-8113 cells in a dose-dependent manner
same,Late apoptotic/necrotic rate (Annexin V+/PI+),[2]; 40 μmol/l PTS,11.5%
same,early apoptotic rate (Annexin V+/PI−),[2]; 40 μmol/l PTS,20.2%
same,Late apoptotic/necrotic rate (Annexin V+/PI+),[2]; 80 μmol/l PTS,15.9%
same,early apoptotic rate (Annexin V+/PI−),[2]; 80 μmol/l PTS,64.1%
same,viability at 40 µM,[2]; [17],67.5%
same,viability at 80 µM,[2]; [17],19.8%
same,ultrastructural changes,[3],shrunk nuclei and an irregular nuclear membrane
same,LDH release compared with the control group,[4],two-fold increase
same,intracellular PTS accumulation,[5],significantly inhibited in HGF cells compared with that in Tca-8113 cells
same,solubility in water or a water-based solution,[6],not readily dissolved in water or in a water-based solution
same,intracellular PTS concentration,[7],increase the intracellular PTS concentration in Tca-8113 cells in a dose dependent manner
same,intracellular PTS concentration variation between Tca-8113 cells and HGF cells,[7]; 20 μmol/l,5 ×
same,intracellular PTS concentration variation between Tca-8113 cells and HGF cells,[7]; 40 μmol/l,8 ×
same,intracellular PTS concentration variation between Tca-8113 cells and HGF cells,[7]; 80 μmol/l,12
same,invasive ability (cell migration),[8],significantly reduced the invasive ability of Tca-8113 cells
same,cytosolic cytochrome c expression,[9],significantly induced cytosolic cytochrome c expression
same,number of viable cells (colony formation),[10],almost completely suppressed the number of viable cells
same,free enzyme activity (lysosomal β-galactosidase),[11],significantly increase free enzyme activity in a dose-dependent manner
same,HGF cells suppressed,[12]; [16],10%
same,inhibitory effects of PTS in HGF cells,"[12]; human, 1 h",significantly decreased compared with that in Tca-8113 cells
same,cleaved cathepsin B expression,[13],significantly increases cleaved cathepsin B expression
same,morphologic changes,[14],"induce classical apoptotic features including cell shrinkage, nuclear condensation, cell density reduction, and apoptotic body formation"
same,mitochondrial ATP biosynthesis,[15]; 24-48 h,significantly inhibited mitochondrial ATP biosynthesis in a time-dependent manner
same,ATP biosynthesis attenuated to,[15]; 1 h,65.8%
